From patent US20140350029A1 (DAINIPPON SUMITOMO PHARMA CO., LTD., priority 2011, published 2014)

Tests used:
[1] = target: T1, serotonin 5-HT1A receptor (Homo sapiens, UniProt P08908); test: Functional assay, effect on receptor function; type: biochemical
T1 sequence (P08908 1-422): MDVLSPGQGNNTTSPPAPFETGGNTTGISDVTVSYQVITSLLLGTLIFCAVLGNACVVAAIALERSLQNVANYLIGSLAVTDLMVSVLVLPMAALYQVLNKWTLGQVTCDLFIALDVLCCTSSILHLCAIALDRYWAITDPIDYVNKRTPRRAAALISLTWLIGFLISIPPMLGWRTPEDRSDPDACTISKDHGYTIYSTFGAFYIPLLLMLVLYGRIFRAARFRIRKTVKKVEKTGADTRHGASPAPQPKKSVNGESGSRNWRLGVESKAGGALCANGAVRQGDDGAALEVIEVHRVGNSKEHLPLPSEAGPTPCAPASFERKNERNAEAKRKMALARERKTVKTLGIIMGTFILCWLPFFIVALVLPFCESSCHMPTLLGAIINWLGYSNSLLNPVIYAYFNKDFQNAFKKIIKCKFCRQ
Description: (§1) In vitro binding studies were carried out according to the procedures well-established in the art. Membranes from male Wistar rat brain tissues or cells expressing cloned human receptors were prepared under assay conditions summarized in Ishibashi, T. et al. (Journal of Pharmacology and Experimental Therapeutics (2010)). Functional assays were carried out to analyze the binding affinity and effect on receptor function for dopamine D1-D4 receptor subtypes, serotonin 5-HT1A, 5-HT2A, 5-HT2C, 5-HT6, 5-HT7, norepinephrine α1, α2A, α2C, histamine H1 receptors, and muscarinic M1 receptors.

muscarinic M1 receptor = target: T2, muscarinic M1 receptor (Homo sapiens, UniProt P11229); conditions: background statement; cited from earlier work
T2 sequence (P11229 1-460): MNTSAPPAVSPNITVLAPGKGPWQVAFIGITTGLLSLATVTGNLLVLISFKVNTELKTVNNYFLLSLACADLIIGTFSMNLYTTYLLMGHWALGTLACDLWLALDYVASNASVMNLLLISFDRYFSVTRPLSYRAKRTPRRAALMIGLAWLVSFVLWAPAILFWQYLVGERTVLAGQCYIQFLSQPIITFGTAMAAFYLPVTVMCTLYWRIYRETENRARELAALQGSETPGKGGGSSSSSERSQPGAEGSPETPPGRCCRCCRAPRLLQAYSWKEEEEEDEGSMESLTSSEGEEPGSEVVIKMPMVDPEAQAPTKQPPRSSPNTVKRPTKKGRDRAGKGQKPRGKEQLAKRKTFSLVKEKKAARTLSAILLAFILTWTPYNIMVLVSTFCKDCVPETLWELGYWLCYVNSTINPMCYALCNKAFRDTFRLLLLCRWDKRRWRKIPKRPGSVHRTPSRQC

Dopamine D1 receptor = target: T3, Dopamine D1 receptor (Rattus norvegicus, UniProt P18901); test: In vitro receptor binding, dopamine D1 (rat); conditions: read-out: Binding Affinities (Ki; nM) Dopamine D1
T3 construct: Membranes from male Wistar rat brain tissues; from tissue; host or cells: male Wistar rat brain
T3 sequence (P18901 whole entry): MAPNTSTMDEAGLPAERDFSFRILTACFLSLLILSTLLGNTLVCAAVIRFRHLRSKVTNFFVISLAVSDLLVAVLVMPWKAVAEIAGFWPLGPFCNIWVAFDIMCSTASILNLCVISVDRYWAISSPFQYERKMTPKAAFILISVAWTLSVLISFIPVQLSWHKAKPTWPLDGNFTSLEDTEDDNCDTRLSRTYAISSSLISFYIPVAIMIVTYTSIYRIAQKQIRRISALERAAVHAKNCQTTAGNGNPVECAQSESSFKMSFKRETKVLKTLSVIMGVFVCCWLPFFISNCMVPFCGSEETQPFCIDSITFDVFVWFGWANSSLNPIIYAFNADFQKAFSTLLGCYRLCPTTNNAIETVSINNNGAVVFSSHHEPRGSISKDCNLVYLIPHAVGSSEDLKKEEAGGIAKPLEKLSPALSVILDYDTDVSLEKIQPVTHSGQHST
Description: as §1

[2] = Metabolic effects, 1-year lurasidone therapy; type: in vivo, human; conditions: 40-120 mg/day, 1-year study, patients with schizophrenia
Description: Changes in weight, total cholesterol, triglycerides, fasting glucose, and prolactin were measured and compared to baseline levels.

[3] = target: T4, Serotonin 5-HT2c receptor (Sus scrofa, UniProt K7GSR7); type: binding, porcine
T4 sequence (K7GSR7 1-457): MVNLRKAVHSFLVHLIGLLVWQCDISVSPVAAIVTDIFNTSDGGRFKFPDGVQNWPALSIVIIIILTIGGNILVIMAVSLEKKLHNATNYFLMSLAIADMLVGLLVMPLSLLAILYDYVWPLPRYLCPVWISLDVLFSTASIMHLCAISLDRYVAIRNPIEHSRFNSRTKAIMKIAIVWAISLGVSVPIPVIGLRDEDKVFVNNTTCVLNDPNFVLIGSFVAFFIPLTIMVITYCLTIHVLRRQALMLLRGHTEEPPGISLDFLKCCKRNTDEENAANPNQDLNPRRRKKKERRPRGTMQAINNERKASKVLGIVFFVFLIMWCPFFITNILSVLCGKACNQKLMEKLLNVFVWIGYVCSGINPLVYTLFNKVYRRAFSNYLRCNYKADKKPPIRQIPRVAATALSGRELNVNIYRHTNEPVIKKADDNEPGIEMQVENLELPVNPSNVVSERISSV
Description: as §1

5-HT2A receptor = 5-HT2A receptor (Homo sapiens, UniProt P28223); conditions: background statement; cited from earlier work
Sequence of 5-HT2A receptor (P28223 whole entry): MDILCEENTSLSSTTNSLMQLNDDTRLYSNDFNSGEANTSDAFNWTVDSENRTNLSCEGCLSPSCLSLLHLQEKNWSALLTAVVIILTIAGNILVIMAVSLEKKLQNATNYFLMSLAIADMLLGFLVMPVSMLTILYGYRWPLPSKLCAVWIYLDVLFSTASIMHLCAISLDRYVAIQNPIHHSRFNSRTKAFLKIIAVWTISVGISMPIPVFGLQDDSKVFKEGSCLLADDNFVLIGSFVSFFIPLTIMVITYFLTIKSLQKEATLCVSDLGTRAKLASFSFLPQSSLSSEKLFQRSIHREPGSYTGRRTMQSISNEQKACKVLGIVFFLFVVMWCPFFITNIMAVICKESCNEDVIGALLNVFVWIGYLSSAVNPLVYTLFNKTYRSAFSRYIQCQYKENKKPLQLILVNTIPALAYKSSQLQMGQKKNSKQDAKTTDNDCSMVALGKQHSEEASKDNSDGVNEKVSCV

[4] = test system: patients with schizophrenia; test: Quality of Well-Being (QWB-SA), 6-week placebo-controlled study; type: in vivo, human; conditions: 80 mg and 160 mg lurasidone per day, 6 weeks
Description: Quality of Well-Being (QWB) was measured according to the procedures well-established in the art. The QWB was a self administered questionnaire (QWB-SA), where the combined score ranged from 0 to 1.0 (death to optimal functioning). A patient diagnosed with schizophrenia answered five sections assessing the presence/absence of 19 chronic symptoms or problems, physical symptoms, and mental health symptoms and behaviors as well as an assessment of a person's mobility, physical activity and social activity including completion of role expectations. […] In addition, the relationship between other indicators of therapy outcome, for example, cognitive composite scores, PANSS scores, Negative Symptom Assessment Scale scores (NSA), and Montgomery-Asberg Depression Rating Scale scores (MADRS), was evaluated in relation to quality of life, as assessed by the QWB-SA. […] In addition, partial correlations were found between improvement of QWB-SA and PANSS scores, QWB-SA and MADE scores, QWB-SA and NSA scores, and QWB-SA and cognitive composite scores.

[5] = Lurasidone monotherapy for bipolar I depression, 6-week study, safety and tolerability; type: in vivo, human
[6] = Lurasidone 20-60 mg, listed as LUR
[7] = Lurasidone 80-120 mg, listed as LUR

O=C1[C@@H]2[C@H]3CC[C@H](C3)[C@@H]2C(=O)N1C[C@@H]1CCCC[C@H]1CN1CCN(c2nsc3ccccc23)CC1 [Lurasidone]
effect on 5-HT1A receptor function [1]: partial agonist
reported affinity for muscarinic M1 receptor (muscarinic M1 receptor): minimal to no affinity
Ki (Dopamine D1 receptor): 262 nM
changes in mean weight, lipids, and prolactin from baseline [2]: no adverse changes
Ki ([3]; porcine, read-out: Binding Affinities (Ki; nM) Serotonin 5-HT2c): 415 nM
binding affinity for serotonin 5-HT2C receptor (in words) ([3]; summary of Table 2): low or negligible binding affinity
reported affinity for 5-HT2A receptor (5-HT2A receptor): high affinity
QWB-SA score compared to placebo (endpoint ANCOVA) [4]: significant improvement
Adverse Events: Akathisia, incidence ([5]; Lurasidone 20-60 mg): 13 (7.9%)
Adverse Events: Dizziness, incidence ([5]; Lurasidone 20-60 mg): 4 (2.4%)
Adverse Events: Headache, incidence ([5]; Lurasidone 20-60 mg): 23 (14.0%)
Adverse Events: Insomnia, incidence ([5]; Lurasidone 20-60 mg): 8 (4.9%)
Adverse Events: Nausea, incidence ([5]; Lurasidone 20-60 mg): 17 (10.4%)
Adverse Events: Sedation, incidence ([5]; Lurasidone 20-60 mg): 5 (3.0%)
Adverse Events: Somnolence, incidence ([5]; Lurasidone 20-60 mg): 7 (4.3%)
Cholesterol (mg/dL) median change (at LOCF endpoint) ([5]; Lurasidone 20-60 mg): 0.0 mg/dL
Glucose (mg/dL) median change (at LOCF endpoint) ([5]; Lurasidone 20-60 mg): -1.0 mg/dL
Triglycerides (mg/dL) median change (at LOCF endpoint) ([5]; Lurasidone 20-60 mg): +3.0 mg/dL
Weight (kg) mean change (at LOCF endpoint) ([5]; Lurasidone 20-60 mg): +0.56 kg
Adverse Events: Akathisia, incidence [5, 6]: 7.9%
Adverse Events: Headache, incidence [5, 6]: 14.0%
Adverse Events: Nausea, incidence [5, 6]: 10.4%
Adverse Events: Akathisia, incidence ([5]; Lurasidone 80-120 mg): 18 (10.8%)
Adverse Events: Dizziness, incidence ([5]; Lurasidone 80-120 mg): 10 (6.0%)
Adverse Events: Headache, incidence ([5]; Lurasidone 80-120 mg): 15 (9.0%)
Adverse Events: Insomnia, incidence ([5]; Lurasidone 80-120 mg): 11 (6.6%)
Adverse Events: Nausea, incidence ([5]; Lurasidone 80-120 mg): 17.4%
Adverse Events: Sedation, incidence ([5]; Lurasidone 80-120 mg): 12 (7.2%)
Adverse Events: Somnolence, incidence ([5]; Lurasidone 80-120 mg): 11 (6.6%)
Cholesterol (mg/dL) median change (at LOCF endpoint) ([5]; Lurasidone 80-120 mg): -3.0 mg/dL
Glucose (mg/dL) median change (at LOCF endpoint) ([5]; Lurasidone 80-120 mg): 0.0 mg/dL
Triglycerides (mg/dL) median change (at LOCF endpoint) ([5]; Lurasidone 80-120 mg): -2.0 mg/dL
Weight (kg) mean change (at LOCF endpoint) ([5]; Lurasidone 80-120 mg): +0.02 kg
Adverse Events: Akathisia, incidence [5, 7]: 10.8%
Adverse Events: Headache, incidence [5, 7]: 9.0%
Adverse Events: Nausea, incidence [5, 7]: 17.4%
discontinuation rates due to adverse events ([5]; lurasidone 20 to 60 mg/day): 7%
discontinuation rates due to adverse events ([5]; lurasidone 80 to 120 mg/day): 6%
changes in weight, lipids and measures of glycemic control ([5]; monotherapy, 20-60 and 80-120 mg/day, 6 weeks): Minimal changes
